Experiments:
primary human PBMCs = test: IFN-α levels in primary human PBMCs by Cytometric Bead Array; type: cell-based; conditions: 50 μM, Effectene transfection, 24 hours; fifteen donors
Protocol: To determine the levels of IFN-α as a signature of CDN potency to activate innate immunity, 1×10^6 primary human PBMCs isolated from fifteen independent human donors were incubated in a 96 well U bottom plate for 30 min at 37° C., 5% CO2 with 50 μM of c-di-GMP (CDG), 1 μg/mL of Interferon Stimulatory DNA (ISD), or 4 μg/mL of Poly (I:C) utilizing Effectene transfection reagent (Qiagen) to transfer the molecules into the PBMC. ISD (Interferon Stimulating DNA) is TLR independent (Stetston, D. B. et. al. Immunity 24, 93-103, January 2006) and signals through cGAS, and is thus STING-dependent, while Poly (I:C) can signal through both TLR3 and RIG-I pathways, and are thus STING-independent. After 30 minutes, the cells were washed and replaced with RPMI media containing 10% FBS and incubated at 37° C., 5% CO2. After 24 hours incubation IFN-α levels were determined by Cytometric Bead Array (CBA, BD Biosciences) (FIG. 8).

STING = molecular target: T1, STING (Mus musculus, UniProt Q3TBT3); conditions: cited from earlier work
T1 sequence (Q3TBT3 138-378 limits assumed): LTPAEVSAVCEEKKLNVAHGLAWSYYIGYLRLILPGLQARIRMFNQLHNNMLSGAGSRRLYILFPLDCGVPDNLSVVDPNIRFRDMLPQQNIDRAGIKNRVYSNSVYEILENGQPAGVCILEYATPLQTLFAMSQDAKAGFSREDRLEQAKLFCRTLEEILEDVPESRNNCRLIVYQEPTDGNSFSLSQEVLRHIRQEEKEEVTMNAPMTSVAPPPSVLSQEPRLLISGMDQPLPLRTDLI

Question: Which results are given for `Nc1nc2c(ncn2[C@@H]2O[C@@H]3COP(=O)(O)O[C@H]4[C@@H](O)[C@H](n5cnc6c(=O)[nH]c(N)nc65)O[C@@H]4COP(=O)(O)O[C@H]3[C@H]2O)c(=O)[nH]1` [cyclic-di-GMP, cyclic diguanylate monophosphate]?
Answer: activation of innate immunity (IFN-α levels) (primary human PBMCs): activates innate immunity; binding to STING (STING): binds directly

From patent US9770467B2, “Compositions and methods for cancer immunotherapy” (THE JOHNS HOPKINS UNIVERSITY, priority 2012, dated 2017)
